Measurements from patent US20070128217A1 (priority 2003, published 2007).

Assays:
[1] = system: antibodies in sera from SARS patients (sera 1a, 1b, 2, 6, 37, 62, London, SARS-yellow, SARS-green); format: binding, human; parameters: Binding of serum 6 to linear peptides of protein X1 of SARS-CoV Urbani / Binding of serum 37 to linear peptides of protein X1 of SARS-CoV Urbani / Binding of serum 6 to looped/cyclic peptide (PEPSCAN-ELISA) / Binding of serum 37 to looped/cyclic peptide (PEPSCAN-ELISA) / Binding of serum 37 to looped/cyclic peptides of protein X1 of SARS-CoV Urbani / Binding of serum 6 to linear peptides of protein X2 / Binding of serum 37 to linear peptides of protein X2 / Binding of serum 37 to looped/cyclic peptides of protein X2 of SARS-CoV Urbani / Binding of serum 6 to linear peptides of protein M of SARS-CoV Urbani / Binding of serum 37 to linear peptides of protein M of SARS-CoV Urbani / Binding of serum 6 to looped/cyclic peptides of protein M of SARS-CoV Urbani / Binding of serum 37 to looped/cyclic peptides of protein M of SARS-CoV Urbani / Binding of serum 6 to linear peptides of protein X3 of SARS-CoV Urbani / Binding of serum 37 to linear peptides of protein X3 of SARS-CoV Urbani / Binding of serum 37 to looped/cyclic peptides of protein X3 of SARS-CoV Urbani / Binding of serum 6 to linear peptides of protein X4 of SARS-CoV Urbani / Binding of serum 37 to linear peptides of protein X4 of SARS-CoV Urbani / Binding of serum 37 to looped/cyclic peptides of protein X4 of SARS-CoV Urbani / Binding of serum 6 to linear peptides of protein X5 of SARS-CoV Urbani / Binding of serum 37 to linear peptides of protein X5 of SARS-CoV Urbani / Binding of serum 37 to looped/cyclic peptides of protein X5 of SARS-CoV Urbani / Binding of serum 6 to linear peptides of protein N of SARS-CoV Urbani / Binding of serum 37 to linear peptides of protein N of SARS-CoV Urbani / Binding of serum 6 to linear peptide (PEPSCAN-ELISA) / Binding of serum 1a to looped/cyclic peptides of protein N of SARS-CoV Urbani / Binding of serum 1b to looped/cyclic peptides of protein N of SARS-CoV Urbani / Binding of serum 2 to looped/cyclic peptides of protein N of SARS-CoV Urbani / Binding of serum 6 to looped/cyclic peptides of protein N of SARS-CoV Urbani / Binding of serum 37 to looped/cyclic peptides of protein N of SARS-CoV Urbani / Binding of serum 62 to looped/cyclic peptides of protein N of SARS-CoV Urbani / Binding of serum London to looped/cyclic peptides of protein N of SARS-CoV Urbani / Binding of serum SARS-green to looped/cyclic peptides of protein N of SARS-CoV Urbani: unit not given here
[2] = system: control sera (pooled serum of ten healthy LUMC hospital workers; commercial negative donor pooled serum from the Dutch bloodbank); format: binding, human
[3] = system: rabbit serum obtained by immunizing a rabbit with the SARS-CoV strain Frankfurt 1; format: binding; parameters: Binding of a rabbit serum to linear peptides / Binding of a rabbit serum to looped peptides / Rabbit serum linear peptides / Rabbit serum looped peptides / Binding of a rabbit serum to linear peptides of protein N of SARS-CoV Urbani (Rabbit serum linear peptides) / Binding of a rabbit serum to looped/cyclic peptides of protein N of SARS-CoV Urbani (Rabbit serum looped peptides): unit not given here

## VDFQVTIAEILIIIM
[1]
  Binding of serum 1a to linear peptides of protein X3 of SARS-CoV Urbani: 0.8
  Binding of serum 1a to looped/cyclic peptides of protein X3 of SARS-CoV Urbani: 0.7
  Binding of serum 1b to linear peptides of protein X3 of SARS-CoV Urbani: 0.5
  Binding of serum 1b to looped/cyclic peptides of protein X3 of SARS-CoV Urbani: 0.4
  Binding of serum 2 to linear peptides of protein X3 of SARS-CoV Urbani: 0.7
  Binding of serum 2 to looped/cyclic peptides of protein X3 of SARS-CoV Urbani: 0.6
  Binding of serum 6 to linear peptides of protein X3 of SARS-CoV Urbani: 0.5
  Binding of serum 6 to looped/cyclic peptides of protein X3 of SARS-CoV Urbani: 0.3
  Binding of serum 37 to linear peptides of protein X3 of SARS-CoV Urbani: 0.5
  Binding of serum 37 to looped/cyclic peptides of protein X3 of SARS-CoV Urbani: 0.6
  Binding of serum 62 to linear peptides of protein X3 of SARS-CoV Urbani: 0.6
  Binding of serum 62 to looped/cyclic peptides of protein X3 of SARS-CoV Urbani: 0.6
  Binding of serum London to linear peptides of protein X3 of SARS-CoV Urbani: 0.6
  Binding of serum London to looped/cyclic peptides of protein X3 of SARS-CoV Urbani: 0.2
  Binding of serum SARS-green to linear peptides of protein X3 of SARS-CoV Urbani: 0.4
  Binding of serum SARS-green to looped/cyclic peptides of protein X3 of SARS-CoV Urbani: 0.3
  Binding of serum SARS-yellow to linear peptides of protein X3 of SARS-CoV Urbani: 0.6
  Binding of serum SARS-yellow to looped/cyclic peptides of protein X3 of SARS-CoV Urbani: 0.8
[2]
  Binding of Control Serum Blood-Bank to Looped peptides of the protein X3 of SARS-CoV Urbani: 0.6
  Binding of Control serum Blood-bank to linear peptides of the protein X3 of SARS-CoV Urbani: 0.8
  Binding of Control serum LUMC to linear peptides of the protein X3 of SARS-CoV Urbani: 0.8
  Binding of Control serum LUMC to looped peptides of the protein X3 of SARS-CoV Urbani: 0.8
[3]
  Rabbit serum linear peptides: 0.3
  Rabbit serum looped peptides: 0.3

## VNSVLLFLAFVVFLL
[1]
  Binding of serum 1a to linear peptides of protein E of SARS-CoV Urbani: 0.9
  Binding of serum 1a to looped/cyclic peptides of protein E of SARS-CoV Urbani: 0.6
  Binding of serum 1b to linear peptides of protein E of SARS-CoV Urbani: 0.1
  Binding of serum 1b to looped/cyclic peptides of protein E of SARS-CoV Urbani: 0.4
  Binding of serum 2 to linear peptides of protein E of SARS-CoV Urbani: 1.1
  Binding of serum 2 to looped/cyclic peptides of protein E of SARS-CoV Urbani: 0.5
  Binding of serum 6 to linear peptides of protein E of SARS-CoV Urbani: 0.6
  Binding of serum 6 to looped/cyclic peptides of protein E of SARS-CoV Urbani: 0.3
  Binding of serum 37 to linear peptides of protein E of SARS-CoV Urbani: 0.5
  Binding of serum 37 to looped/cyclic peptides of protein E of SARS-CoV Urbani: 0.6
  Binding of serum 62 to linear peptides of protein E of SARS-CoV Urbani: 0.2
  Binding of serum 62 to looped/cyclic peptides of protein E of SARS-CoV Urbani: 0.7
  Binding of serum London to linear peptides of protein E of SARS-CoV Urbani: 1.4
  Binding of serum London to looped/cyclic peptides of protein E of SARS-CoV Urbani: 0.3
  Binding of serum SARS-green to linear peptides of protein E of SARS-CoV Urbani: 0.7
  Binding of serum SARS-green to looped/cyclic peptides of protein E of SARS-CoV Urbani: 0.4
  Binding of serum SARS-yellow to linear peptides of protein E of SARS-CoV Urbani: 0.6
  Binding of serum SARS-yellow to looped/cyclic peptides of protein E of SARS-CoV Urbani: 0.6
[2]
  Binding of Control Serum Blood-Bank to Looped peptides: 0.5
  Binding of Control serum Blood-bank to linear peptides: 0.5
  Binding of Control serum LUMC to linear peptides: 0.4
  Binding of Control serum LUMC to looped peptides: 0.7
[3]
  Binding of a rabbit serum to linear peptides: 0.2
  Binding of a rabbit serum to looped peptides: 0.4

## VTLAILTALRLCAYC
[1]
  Binding of serum 1a to linear peptides of protein E of SARS-CoV Urbani: 0.6
  Binding of serum 1a to looped/cyclic peptides of protein E of SARS-CoV Urbani: 0.7
  Binding of serum 1b to linear peptides of protein E of SARS-CoV Urbani: 0.5
  Binding of serum 1b to looped/cyclic peptides of protein E of SARS-CoV Urbani: 0.5
  Binding of serum 2 to linear peptides of protein E of SARS-CoV Urbani: 0.6
  Binding of serum 2 to looped/cyclic peptides of protein E of SARS-CoV Urbani: 0.9
  Binding of serum 6 to linear peptides of protein E of SARS-CoV Urbani: 0.3
  Binding of serum 6 to looped/cyclic peptides of protein E of SARS-CoV Urbani: 0.6
  Binding of serum 37 to linear peptides of protein E of SARS-CoV Urbani: 0.4
  Binding of serum 37 to looped/cyclic peptides of protein E of SARS-CoV Urbani: 0.6
  Binding of serum 62 to linear peptides of protein E of SARS-CoV Urbani: 0.4
  Binding of serum 62 to looped/cyclic peptides of protein E of SARS-CoV Urbani: 0.8
  Binding of serum London to linear peptides of protein E of SARS-CoV Urbani: 0.5
  Binding of serum London to looped/cyclic peptides of protein E of SARS-CoV Urbani: 0.5
  Binding of serum SARS-green to linear peptides of protein E of SARS-CoV Urbani: 0.5
  Binding of serum SARS-green to looped/cyclic peptides of protein E of SARS-CoV Urbani: 0.5
  Binding of serum SARS-yellow to linear peptides of protein E of SARS-CoV Urbani: 0.2
  Binding of serum SARS-yellow to looped/cyclic peptides of protein E of SARS-CoV Urbani: 0.7
[2]
  Binding of Control Serum Blood-Bank to Looped peptides: 0.9
  Binding of Control serum Blood-bank to linear peptides: 0.5
  Binding of Control serum LUMC to linear peptides: 0.6
  Binding of Control serum LUMC to looped peptides: 0.8
[3]
  Binding of a rabbit serum to linear peptides: 0.1
  Binding of a rabbit serum to looped peptides: 0.4

## VVFLLVTLAILTALR
[1]
  Binding of serum 1a to linear peptides of protein E of SARS-CoV Urbani: 0.7
  Binding of serum 1a to looped/cyclic peptides of protein E of SARS-CoV Urbani: 0.5
  Binding of serum 1b to linear peptides of protein E of SARS-CoV Urbani: 0.4
  Binding of serum 1b to looped/cyclic peptides of protein E of SARS-CoV Urbani: 0.3
  Binding of serum 2 to linear peptides of protein E of SARS-CoV Urbani: 0.4
  Binding of serum 2 to looped/cyclic peptides of protein E of SARS-CoV Urbani: 0.5
  Binding of serum 6 to linear peptides of protein E of SARS-CoV Urbani: 0.6
  Binding of serum 6 to looped/cyclic peptides of protein E of SARS-CoV Urbani: 0.5
  Binding of serum 37 to linear peptides of protein E of SARS-CoV Urbani: 0.6
  Binding of serum 37 to looped/cyclic peptides of protein E of SARS-CoV Urbani: 0.4
  Binding of serum 62 to linear peptides of protein E of SARS-CoV Urbani: 0.6
  Binding of serum 62 to looped/cyclic peptides of protein E of SARS-CoV Urbani: 0.7
  Binding of serum London to linear peptides of protein E of SARS-CoV Urbani: 0.5
  Binding of serum London to looped/cyclic peptides of protein E of SARS-CoV Urbani: 0.5
  Binding of serum SARS-green to linear peptides of protein E of SARS-CoV Urbani: 0.5
  Binding of serum SARS-green to looped/cyclic peptides of protein E of SARS-CoV Urbani: 0.2
  Binding of serum SARS-yellow to linear peptides of protein E of SARS-CoV Urbani: 0.1
  Binding of serum SARS-yellow to looped/cyclic peptides of protein E of SARS-CoV Urbani: 0.5
[2]
  Binding of Control Serum Blood-Bank to Looped peptides: 0.6
  Binding of Control serum Blood-bank to linear peptides: 0.6
  Binding of Control serum LUMC to linear peptides: 0.4
  Binding of Control serum LUMC to looped peptides: 0.6
[3]
  Binding of a rabbit serum to linear peptides: 0.5
  Binding of a rabbit serum to looped peptides: 0.2
